The record followed here is patent US20260284066A1, “TYK2 INHIBITORS AND COMPOSITIONS AND METHODS THEREOF” (LYNK PHARMACEUTICALS CO. LTD., priority 2023, published 2026).

For one series, the target named is T1, TYK2-JH2 domain (Homo sapiens, UniProt P29597).
T1 construct: JAK1-JH2 domain or TYK2-JH2 domain enzyme
Put plainly: Binding activity test for TYK2 JH2 domain (Tb-antibody/tracer FRET). The following applies: for JAK1/TYK2 selectivity: ratio of JAK1 JH2 to TYK2 JH2 binding IC50; for IC50: read-out: TYK2 JH2 Binding IC50.

The target in a further series is T2, JAK2 (Homo sapiens, UniProt O60674).
T2 construct: purchased Carna Biosciences
T2 sequence (O60674 849-1124 limits assumed): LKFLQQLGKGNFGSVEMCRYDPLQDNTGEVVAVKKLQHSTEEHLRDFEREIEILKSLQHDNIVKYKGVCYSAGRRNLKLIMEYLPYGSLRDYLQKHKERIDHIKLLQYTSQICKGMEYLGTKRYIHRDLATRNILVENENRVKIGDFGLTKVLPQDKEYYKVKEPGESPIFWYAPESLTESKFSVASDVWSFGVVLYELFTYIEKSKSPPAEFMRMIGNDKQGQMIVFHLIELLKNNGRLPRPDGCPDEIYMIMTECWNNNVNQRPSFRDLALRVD
Put plainly: JAK2 kinase activity, microfluidic assay (Caliper). It counts as biochemical. To be noted: JAK2 1.5 nM, 1 mM ATP. How it is done:
(§1) Testing for JAK1, JAK2 and TYK2 Kinase Activities
(§2) JAK activity was determined in the reaction buffer 50 mM HEPES, 0.01% Brij35, 10 mM MgCl2, 2 mM DTT by a microfluidic assay. The phosphorylation of a FAM labeled peptide substrate was monitored in the Caliper EZ Reader II (Perkin Elmer). The assay condition for each batch of enzyme (Carna Biosciences) was optimized to obtain 10% conversion rate of peptide substrate.
(§3) The test compounds were dissolved in DMSO to a stock concentration of 10 mM. Three-fold serially diluted compounds with top concentration of 5 μM were pre-incubated with JAK1, JAK2 or TYK2 for 10 min at ambient temperature. The final DMSO concentration of assay mixture was 1%. […] The reaction was stopped by adding 50 mM EDTA.
(§4) And the well without compound but with equivalent DMSO was defined as no inhibition. The percent inhibition was calculated by the following formula:
(§5) wherein • Conversion %_max=the conversion rate in the positive well without addition of compound • Conversion %_sample=the conversion rate of test compounds • Conversion %_min=the conversion rate in the well without addition of enzyme
(§6) The dose-response (percent inhibition) curve was plotted and IC50 values were determined by GraphPad software. The IC50 values of tested compounds were list in Table 3.

The target of the next series is T3, JAK1 (Homo sapiens, UniProt P23458).
T3 construct: purchased Carna Biosciences
T3 sequence (P23458 875-1153 limits assumed): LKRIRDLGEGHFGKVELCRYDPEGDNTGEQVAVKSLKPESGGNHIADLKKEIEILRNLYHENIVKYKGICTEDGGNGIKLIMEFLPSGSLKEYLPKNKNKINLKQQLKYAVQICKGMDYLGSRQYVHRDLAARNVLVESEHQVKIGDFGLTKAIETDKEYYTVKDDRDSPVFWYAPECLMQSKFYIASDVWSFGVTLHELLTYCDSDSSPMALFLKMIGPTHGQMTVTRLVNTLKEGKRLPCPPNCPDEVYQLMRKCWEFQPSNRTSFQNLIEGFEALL
Put plainly: JAK1 kinase activity, microfluidic assay (Caliper). The following applies: JAK1 10 nM, 1 mM ATP. The class given is biochemical. How it is done:
as §1, §2, §3, §4, §5, §6

A further series addresses T4, TYK2 (Homo sapiens, UniProt P29597).
T4 construct: purchased Carna Biosciences
T4 sequence (P29597 897-1176 limits assumed): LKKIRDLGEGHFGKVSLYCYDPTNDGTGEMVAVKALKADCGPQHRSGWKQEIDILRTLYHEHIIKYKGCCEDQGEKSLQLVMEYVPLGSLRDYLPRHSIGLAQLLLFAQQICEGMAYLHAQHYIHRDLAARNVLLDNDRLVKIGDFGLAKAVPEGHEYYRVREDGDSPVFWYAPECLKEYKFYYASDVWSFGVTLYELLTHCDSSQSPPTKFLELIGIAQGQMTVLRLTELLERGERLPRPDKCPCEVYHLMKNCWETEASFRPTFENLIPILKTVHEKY
Put plainly: TYK2 kinase activity, microfluidic assay (Caliper). The class given is biochemical. To be noted: TYK2 20 nM, 1 mM ATP. The procedure: as §1, §2, §3, §4, §5, §6

The nature of series [1]: Microsomal metabolic stability assay. The class given is in vitro ADME, human. To be noted: human, liver microsomes, pH 7.4, human liver microsomes 0.5 mg/mL. The method, boiled down:
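Pre-incubated 5 min at 37 °C in 100 mM potassium phosphate pH 7.4, 1.0 mM EDTA; final 0.5 mg/mL microsomal protein, 1 μM test article, 2 mM NADPH. Sampled at 0, 5, 15, 30, 45 min, quenched with cold acetonitrile, LC/MS/MS. T1/2 from ln % remaining vs time; CLint = 0.693/T1/2/mg protein per mL.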

For another series, the target named is T5, JAK1-JH2 domain (Homo sapiens, UniProt P23458).
T5 construct: JAK1-JH2 domain or TYK2-JH2 domain enzyme
T5 sequence (P23458 583-855 limits assumed): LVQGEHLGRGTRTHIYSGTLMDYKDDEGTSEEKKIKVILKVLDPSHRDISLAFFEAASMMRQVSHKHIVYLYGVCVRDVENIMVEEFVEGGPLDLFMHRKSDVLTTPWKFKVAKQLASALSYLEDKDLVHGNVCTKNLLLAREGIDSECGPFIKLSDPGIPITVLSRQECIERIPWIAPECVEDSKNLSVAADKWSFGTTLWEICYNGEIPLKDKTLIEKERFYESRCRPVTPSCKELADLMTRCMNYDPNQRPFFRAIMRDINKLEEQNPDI
Put plainly: Binding activity test for JAK1 JH2 domain (Tb-antibody/tracer FRET). The following applies: read-out: JAK1 JH2 Binding IC50.

The next series concerns TYK2 pathway. Put plainly: IFN-γ release in NK92 cells stimulated by IL-12 (ELISA). It counts as cell-based. The following applies: Homo sapiens, IL-12 2.5 ng/mL. In general terms: An ELISA detects its analyte on a solid surface through an enzyme-linked reagent.
Another series concerns pSTAT1. Put plainly: Phosphorylation inhibition of STAT in human whole blood (IFN-alpha stimulated, flow cytometry). It counts as cell-based. The following applies: T-cell, CD3+ T cells, read-out: pSTAT1 inhibition in hWB (IC50). The procedure:
Phosphorylation Inhibition of STAT in Human Whole Blood Testing: The inhibitory potential of test articles in human whole blood assay was evaluated by the method of flow cytometry. IFN-alpha will activate JAK1 and TYK2 kinase in T cells by binding to IFN receptors, and then lead to phosphorylation of STAT1 and STAT2. The phosphorylated STAT1 enter nuclear and promote transcription and expression of IFN-gamma. To evaluate the efficacy of TYK2i in T cells, freshly collected human whole blood will be stimulated with certain unit of human IFN-alpha (Universal Type I IFN (1MU), R&D, 11200-2) for 20 mins in incubator. After stimulation, fix cells with PhosflowTM Fix Buffer I (BD, 557870), and then collect fixed cells by centrifugation (500 g, 8 min). Wash cells once with pre-cooled PBS, and then permeabilize cells with cold Perm Buffer III buffer (BD, 558050) for 45 mins on ice. Collect cells by centrifugation (600 g, 8 min) and washed twice with cold PBS. Stain cells with anti-human CD3(FITC Mouse Anti-Human CD3, BD, 555332) and anti-pSTAT1_Y701 (Alexa Fluor 647 Mouse Anti-Stat1 ([…]), BD, 612597) antibodies. Detect pSTAT1 by flow cytometry (CytoFlex S) and analyze data with FlowJo and GraphPad Prism 8 software. IC50 values of test articles were determined using 4-parameter logistic equation.

The nature of the next series: Kinetic solubility. The class given is physicochemical. The following applies: aqueous buffer, 100 mM pH 7.4 phosphate buffer, 1% DMSO, room temperature, read-out: Kinetics Solubility_PBS7.4. How it is done:
Aliquots of 8 μL of reference and test compound stock solutions (10 mM/5 mM) are added into 792 μL of 100 mM pH 7.4 phosphate buffer. The final DMSO concentration is 1%. Sample tubes are shaken for 2 hours at 1000 rpm at room temperature. Samples are centrifuged at 12000 rpm for 10 min to precipitate un-dissolved particles. And transfer the supernatants to a new tube or plate. Add 5 μL of samples (no diluted, 10 times diluted and 100 times diluted) and standard curve samples to 95 μL of ACN containing IS for LC-MS/MS analysis.

Structures are written as SMILES. In brackets after ≈: the same amount, converted by molar mass.

As a reminder, the IC50 is the concentration that gives 50% inhibition.

T1 sequence (P29597 589-875 limits assumed): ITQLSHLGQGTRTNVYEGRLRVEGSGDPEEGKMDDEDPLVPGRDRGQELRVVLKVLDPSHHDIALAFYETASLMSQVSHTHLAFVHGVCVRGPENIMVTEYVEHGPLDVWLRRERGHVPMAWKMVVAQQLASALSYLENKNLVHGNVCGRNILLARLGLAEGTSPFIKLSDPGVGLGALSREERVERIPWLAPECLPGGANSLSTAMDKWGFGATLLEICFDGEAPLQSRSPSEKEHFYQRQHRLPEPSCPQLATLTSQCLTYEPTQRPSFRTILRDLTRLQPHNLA
Excerpt for TYK2 pathway: IFN-γ Release in NK92 Cells Stimulated by IL-12
Purpose: To evaluate the inhibition activity of TYK2 inhibitors in NK92 cells on TYK2 pathway through ELISA method.

Consider `[2H]C([2H])([2H])NC(=O)c1nnc(NC(=O)C2CC2)cc1Nc1ncc2cnn(CC(C)(F)F)c2c1OC` [Example 24, 6-(Cyclopropanecarboxamido)-4-((1-(2,2-difluoropropyl)-7-methoxy-1H-pyrazolo[4,3-c]pyridin-6-yl)amino)-N-(methyl-d3)pyridazine-3-carboxamide], for which, on TYK2-JH2 domain, the JAK1/TYK2 selectivity is on record as 79.86. The IC50 is 0.271 nM at TYK2-JH2 domain; more than 20000 nM against JAK2; more than 20000 nM against JAK1; more than 20000 nM at TYK2; 21.6 nM on JAK1-JH2 domain; 8.94 nM in the series on TYK2 pathway. The microsomal CLint at 1 µM in [1] (read-out: Human LM Clint) was 4.16 µL/min/mg. Besides, the half-life at 1 µM in series [1] (read-out: Human LM T½) worked out at 5.55 h.

Turning to `CNC(=O)c1cnc(NC(=O)C2CC2)cc1Nc1ncc2cnn(CC(C)(F)F)c2c1OC` [Example 23, 6-(Cyclopropanecarboxamido)-4-((1-(2,2-difluoropropyl)-7-methoxy-1H-pyrazolo[4,3-c]pyridin-6-yl)amino)-N-methylnicotinamide], the JAK1/TYK2 selectivity on TYK2-JH2 domain turned out to be 398.70. The IC50 is 0.315 nM at TYK2-JH2 domain; more than 20000 nM at JAK2; more than 20000 nM at JAK1; more than 20000 nM against TYK2; 126 nM on JAK1-JH2 domain; 17.4 nM in the series with TYK2 pathway.

On to `[2H]C([2H])([2H])NC(=O)c1cnc(Nc2ccc(N3CCOCC3)cn2)cc1Nc1ccc2cnn(CC(C)(F)F)c2c1OC` [Example 4, 4-((1-(2,2-Difluoropropyl)-7-methoxy-1H-indazol-6-yl)amino)-N-(methyl-d3)-6-((5-morpholinopyridin-2-yl)amino)nicotinamide], for which the JAK1/TYK2 selectivity on TYK2-JH2 domain was 51.23. In addition, the IC50 on TYK2-JH2 domain is 0.165 nM; against JAK2, more than 20000 nM; at JAK1 it was more than 20000 nM; at TYK2, more than 20000 nM; on JAK1-JH2 domain, 8.45 nM; with pSTAT1 it was 152 nM. The molecule also displayed an IC50 with TYK2 pathway of 14 nM. For the same molecule, in “Kinetic solubility”, the solubility kinetic at 2 h worked out at 61.8 µM (≈ 34.3 µg/mL).
